Measured values reported in patent publication US20090042835A1, “COMPOSITIONS AND METHODS FOR AMELIORATING HYPERLIPIDEMIA” (priority 2006, published 2009).
Blank lines part the entries; values can stand above or below the molecule they belong to.

How the values were obtained:
L-FABP [1] = molecular target: T1, L-FABP (Homo sapiens, UniProt P07148); assay: 1,8-ANS binding to FABP (direct binding isotherms)
T1 sequence (P07148 1-127): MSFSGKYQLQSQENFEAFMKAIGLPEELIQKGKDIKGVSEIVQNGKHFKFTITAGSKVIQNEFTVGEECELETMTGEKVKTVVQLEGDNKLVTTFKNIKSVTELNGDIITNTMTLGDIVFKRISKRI
Source text: The pharmaceutical compound may be formulated using any small molecule that is capable of inhibiting L-FABP and which is pharmaceutically acceptable. One non-limiting example of a suitable L-FABP inhibitor is 3-(decyldimethylsilyl)-N-[2-(4-methylphenyl)-1-phenylethyl]propanamide (Sandoz compound 58-035) (lot #fr. 09061988), In some embodiments, such L-FABP inhibitors are identified using a screening assay. […] Suitable in vitro assays for testing L-FABP include, but are not limited to a high throughput L-FABP assay based on the 1,8-ANS binding assay (see: Kane, C. D., and Bernlohr, D. A. 1996, A simple assay for intracellular lipid-binding proteins using displacement of 1-anilinonaphthalene 8-sulfonic acid. Anal Biochem 233:197-204.) In this assay, recombinant L-FABP is incubated with a fluorescent surrogate ligand, 1-anilinonapthalene 8-sulfonic acid (ANS) and allowed to come to equilibrium. 1,8-ANS is non-fluorescent in solution but is highly fluorescent when bound in the hydrophobic, lipid-binding pocket of the fatty acid binding proteins. […] Chemical compounds in pools of 5 were added to each well and the fluorescence re-measured. […] In tertiary screens, the primary targets will be titrated into the FABP bound with 1,8-ANS and the displacement quantitated as a function of ligand concentration.

control mice = assay: PPARα agonist GW-7647 feeding, hepatic mRNA, control mice; type: in vivo; conditions: 2.5 mg/kg/d in chow, 7 weeks
Method: (§1) Animal Studies. Male PPARα−/− mice and age matched WT littermates (on SV/129 background) were fed a standard chow diet, supplemented with either the PPARα agonist GW-7647 (2.5 mg/kg/d) or equivalent amount of solvent vehicle (DMSO), for 7 weeks. All animals had ad libitum access to water. Mice were weighed every 2 weeks and drug intake was adjusted according to mean weight. Upon end of treatment animals were sacrificed, liver was isolated, and total RNA was extracted using Versagene RNA Tissue Kit (Gentra Systems, Inc.). First-Strand cDNA synthesis and Real Time PCR expression analyses were performed as described above.

PPARα−/− mice = assay: PPARα agonist GW-7647 feeding, hepatic mRNA, PPARα−/− mice; type: in vivo; conditions: 2.5 mg/kg/d in chow, 7 weeks
Method: as §1

L-FABP [2] = molecular target: T1, L-FABP; conditions: cited from earlier work
PPARα = molecular target: T2, PPARα (rat, UniProt P37230 1-468); assay: inferred from EMSA supershift of the same FAO-specific DNA-protein complex with anti-RXRα and anti-PPARα antibodies
T2 construct: Nuclear receptor; It was present in a crude nuclear extract, not purified; also called PPAR alpha
T2 sequence (looked up): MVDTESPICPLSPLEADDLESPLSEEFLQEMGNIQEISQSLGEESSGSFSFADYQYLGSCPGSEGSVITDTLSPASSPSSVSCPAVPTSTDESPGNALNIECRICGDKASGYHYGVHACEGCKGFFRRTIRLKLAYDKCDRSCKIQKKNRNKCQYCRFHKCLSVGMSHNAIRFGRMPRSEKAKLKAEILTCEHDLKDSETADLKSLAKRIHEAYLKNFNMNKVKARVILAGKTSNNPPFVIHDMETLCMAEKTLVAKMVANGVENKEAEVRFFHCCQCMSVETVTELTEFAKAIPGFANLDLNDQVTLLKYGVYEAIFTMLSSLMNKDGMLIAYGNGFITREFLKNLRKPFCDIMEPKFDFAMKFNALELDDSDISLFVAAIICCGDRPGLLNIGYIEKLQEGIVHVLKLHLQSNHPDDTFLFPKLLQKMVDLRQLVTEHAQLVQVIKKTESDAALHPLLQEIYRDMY
Method: The probes were prepared by annealing the complementary oligonucleotides and by end labeling with [γ-³²P]ATP ([…]), PerkinElmer Life Sciences) using T4 polynucleotide kinase (New England Biolabs), followed by purification on a G50 column. For binding reactions, 15 μg of nuclear extracts were incubated with 3×10^4 cpm probe on ice for 20 min in a total volume of 15 μl of solution (20 mM HEPES, pH7.9 at 4° C., 10% glycerol, 100 mM KCl, 1 mM EDTA, and 2 μg poly(dI-dC). For supershift experiments, 1 μl of specific antibodies were added to preincubated DNA-protein complexes for an additional 20 min on ice. Antibodies against COUP-TFII (sc-6576X), RXRα (sc-553X), and PPARα (sc-9000X) were obtained from Santa Cruz Biotechnology, Inc. DNA-protein complexes were resolved on 4% native polyacrylamide gel electrophoresis containing 0.5×TBE buffer.
PPARα-RXRα heterodimers compete with COUP-TFII for binding to the DR1 promoter elements of both the MTP and L-FABP genes. […] In contrast, PPARα-RXRα supershifts were not detected with the nuclear extracts obtained from L35 cells ((4)). These Findings indicate that in FAO cells, the DR1 sites of both the L-FABP and MTP promoters are occupied by PPARα-RXRα heterodimers while these same sites are occupied by a COUP-TFII complex in L35 cells.

Kd (L-FABP [1]): 1.5 µM
Molecule: O=S(=O)(O)c1cccc2cccc(Nc3ccccc3)c12 [1,8-ANS, 1-anilinonapthalene 8-sulfonic acid]

Molecule: CC(C)(Sc1ccc(CCN(CCCCC2CCCCC2)C(=O)NC2CCCCC2)cc1)C(=O)O [GW-7647]
hepatic L-FABP mRNA level (control mice): increased levels
hepatic MTP mRNA level (control mice): increased levels
hepatic L-FABP expression level (PPARα−/− mice): no significant changes
hepatic MTP expression level (PPARα−/− mice): no significant changes

Molecule: CCCCCCCCCC[Si](C)(C)CCC(=O)NC(Cc1ccc(C)cc1)c1ccccc1 (stereo not shown) [Sandoz compound 58-035, 3-(decyldimethylsilyl)-N-[2-(4-methylphenyl)-1-phenylethyl]propanamide]
inhibition of L-FABP (L-FABP [2]): inhibit L-FABP

binding result (PPARα): binds
B1: RXRα (receptor, rat, UniProt Q05343 1-467, looked up)
chain: MDTKHFLPLDFSTQVNSSSLSSPTGRGSMAAPSLHPSLGPGLGSPLGSPGQLHSPISTLSSPINGMGPPFSVISSPMGPHSMSVPTTPTLGFETGSPQLNSPMNPVSSSEDIKPPLGLNGVLKVPAHPSGNMSSFTKHICAICGDRSSGKHYGVYSCEGCKGFFKRTVRKDLTYTCRDNKDCLIDKRQRNRCQYCRYQKCLAMGMKREAVQEERQRGKDRNENEVESTSSANEDMPVEKILEAELAVEPKTETYVEANMGLNPSSPNDPVTNICQAADKQLFTLVEWAKRIPHFSELPLDDQVILLRAGWNELLIASFSHRSIAVKDGILLATGLHVHRNSAHSAGVGAIFDRVLTELVSKMRDMQMDKTELGCLRAIVLFNPDSKGLSNPAEVEALREKVYASLEAYCKHKYPEQPGRFAKLLLRLPALRSIGLKCLEHLFFFKLIGDTPIDTFLMEMLEAPHQTT
notes: Nuclear receptor; It was present in a crude nuclear extract, not purified; also called RXR alpha
